Test system: adult fleas (C. felis)
Assay: In vitro membrane feeding exposure to assess flea reproduction
Parameters: species or system Ctenocephalides felis
Conditions: for Effect on hatching of larvae: flea groups able to lay eggs, all concentrations
Method: A membrane feeding method [Wade S E, Georgi J R. Survival and reproduction of artificially fed cat fleas, Ctenocephalides felis Bouché (Siphonaptera: Pulicidae). J Med Entomol 1988, 25: 186-190.] was modified to assess the impact of fluralaner exposure on flea reproduction. Defibrinated sheep blood was prepared in a series of dilutions with fluralaner to obtain concentrations between 50.0 and 0.09 ng/mL. These test solutions were prepared twice and each preparation was tested in duplicate resulting in a total of 4 replicates per concentration, along with a fluralaner negative solvent control (a solvent concentration equivalent to that of the highest concentrated fluralaner test solution) and an untreated control.
Unfed adult fleas (C. felis; 20 males and 20 females) were placed into a plastic unit that was then closed with a gauze lid. A grid inside the plastic unit divided the unit into 2 chambers, an upper chamber for flea feeding and a lower chamber for egg collection. Test or control blood preparations (2 ml) were placed in an artificial membrane closed glass tube that was then placed on the plastic unit as the food source. Feeding units were incubated (38° C. and 60% RH) for 10 days. Test and negative control blood preparations were freshly prepared and exchanged (on days 1, 3, 5, and 8) to permit continuous flea feeding. Fleas were transferred into fresh plastic units on Days 5 and 8 to facilitate egg collection. Collected eggs were mixed with flea nourishment medium and incubated (28° C. and 80% RH) in darkness for 22 (±3) days to enable flea development. Parameters recorded were flea survival, oviposition control, egg hatchability, pupa control, flea-emergence control and reproduction inhibition.

[1] = eggs of parent fleas fed 6.25 ng/mL in blood, exposure day 3
[2] = eggs of parent fleas fed 6.25 ng/mL in blood, exposure day 4
[3] = eggs of parent fleas fed 6.25 ng/mL in blood, exposure day 5
[4] = eggs of parent fleas fed 6.25 ng/mL in blood, exposure day 8
[5] = eggs of parent fleas fed 6.25 ng/mL in blood, exposure day 9
[6] = eggs of parent fleas fed 6.25 ng/mL in blood, exposure day 10
[7] = eggs of parent fleas fed 12.5 ng/mL in blood, exposure day 3
[8] = eggs of parent fleas fed 12.5 ng/mL in blood, exposure day 8
[9] = eggs of parent fleas fed 12.5 ng/mL in blood, exposure day 9

With `Cc1cc(C2=NOC(c3cc(Cl)cc(Cl)c3)(C(F)(F)F)C2)ccc1C(=O)NCC(=O)NCC(F)(F)F` (stereo not drawn) [fluralaner, 4-[5-(3,5-Dichlorophenyl)-5-trifluoromethyl-4,5-dihydroisoxazol-3-yl]-2-methyl-N-[(2,2,2-trifluoro-ethylcarbamoyl)-methyl]-benzamide] the “Larval Emergence” value [1] was “yes”, the “Pupal Development Control” value [1] was 90.2% and the “Larval Emergence” value [2] was “yes”. The “Pupal Development Control” value [2] was 92.4%, the “Larval Emergence” value [3] was “yes” and the “Pupal Development Control” value [3] was 87.3%. For the same molecule, the “Larval Emergence” value [4] was “yes”, the “Pupal Development Control” value [4] was 86.4% and the “Larval Emergence” value [5] was “yes”. The “Pupal Development Control” value [5] was 89.9%, the “Larval Emergence” value [6] was “yes” and the “Pupal Development Control” value [6] was 86.0%. For the same molecule, the “Pupal Development Control” value (eggs of parent fleas fed 12.5 ng/mL in blood, arithmetic mean of exposure days) was 85.1%, the “Larval Emergence” value [7] was “no” and the “Pupal Development Control” value [7] was 100%. For the same molecule, the “Larval Emergence” value [8] was “yes”, the “Pupal Development Control” value [8] was 55.2% and the “Larval Emergence” value [9] was “yes”. The “Pupal Development Control” value [9] was 100%, the “Effect on hatching of larvae” value was “does not affect the hatching of larvae” and the “Effect on hatching of larvae” value (listed as Fluralaner) was “did not affect the hatching of larvae”. The “Adult Flea Emergence Control” value (parent fleas fed 0.09 ng/mL in blood, arithmetic mean of exposure days) was 0.3%, the “Adult Flea Emergence Control” value (parent fleas fed 0.09 ng/mL in blood, exposure day 3) was 1.1% and the “Adult Flea Emergence Control” value (parent fleas fed 0.09 ng/mL in blood, exposure day 4) was 0.5%. For the same molecule, the “Adult Flea Emergence Control” value (parent fleas fed 0.09 ng/mL in blood, exposure day 5) was 0%, the “Adult Flea Emergence Control” value (parent fleas fed 0.09 ng/mL in blood, exposure day 8) was 0% and the “Adult Flea Emergence Control” value (parent fleas fed 0.09 ng/mL in blood, exposure day 9) was 0%. The “Adult Flea Emergence Control” value (parent fleas fed 0.09 ng/mL in blood, exposure day 10) was 0%, the “Adult Flea Emergence Control” value (parent fleas fed 0.19 ng/mL in blood, arithmetic mean of exposure days) was 2.2% and the “Adult Flea Emergence Control” value (parent fleas fed 0.19 ng/mL in blood, exposure day 3) was 4.6%. For the same molecule, the “Adult Flea Emergence Control” value (parent fleas fed 0.19 ng/mL in blood, exposure day 4) was 0%, the “Adult Flea Emergence Control” value (parent fleas fed 0.19 ng/mL in blood, exposure day 5) was 1.3% and the “Adult Flea Emergence Control” value (parent fleas fed 0.19 ng/mL in blood, exposure day 8) was 0.8%. For the same molecule, the “Adult Flea Emergence Control” value (parent fleas fed 0.19 ng/mL in blood, exposure day 9) was 6.7%, the “Adult Flea Emergence Control” value (parent fleas fed 0.19 ng/mL in blood, exposure day 10) was 0% and the “Adult Flea Emergence Control” value (parent fleas fed 0.39 ng/mL in blood, arithmetic mean of exposure days) was 1.1%. For the same molecule, the “Adult Flea Emergence Control” value (parent fleas fed 0.39 ng/mL in blood, exposure day 3) was 0%, the “Adult Flea Emergence Control” value (parent fleas fed 0.39 ng/mL in blood, exposure day 4) was 0% and the “Adult Flea Emergence Control” value (parent fleas fed 0.39 ng/mL in blood, exposure day 5) was 0%. The “Adult Flea Emergence Control” value (parent fleas fed 0.39 ng/mL in blood, exposure day 8) was 1.6%, the “Adult Flea Emergence Control” value (parent fleas fed 0.39 ng/mL in blood, exposure day 9) was 5.2% and the “Adult Flea Emergence Control” value (parent fleas fed 0.39 ng/mL in blood, exposure day 10) was 0%. For the same molecule, the “Adult Flea Emergence Control” value (parent fleas fed 0.78 ng/mL in blood, arithmetic mean of exposure days) was 1.5%, the “Adult Flea Emergence Control” value (parent fleas fed 0.78 ng/mL in blood, exposure day 3) was 3.8% and the “Adult Flea Emergence Control” value (parent fleas fed 0.78 ng/mL in blood, exposure day 4) was 0%. For the same molecule, the “Adult Flea Emergence Control” value (parent fleas fed 0.78 ng/mL in blood, exposure day 5) was 0%, the “Adult Flea Emergence Control” value (parent fleas fed 0.78 ng/mL in blood, exposure day 8) was 3.1% and the “Adult Flea Emergence Control” value (parent fleas fed 0.78 ng/mL in blood, exposure day 9) was 1.8%. For the same molecule, the “Adult Flea Emergence Control” value (parent fleas fed 0.78 ng/mL in blood, exposure day 10) was 0%, the “Adult Flea Emergence Control” value (parent fleas fed 1.56 ng/mL in blood, arithmetic mean of exposure days) was 1.7% and the “Adult Flea Emergence Control” value (parent fleas fed 1.56 ng/mL in blood, exposure day 3) was 0%. The “Adult Flea Emergence Control” value (parent fleas fed 1.56 ng/mL in blood, exposure day 4) was 0%, the “Adult Flea Emergence Control” value (parent fleas fed 1.56 ng/mL in blood, exposure day 5) was 0% and the “Adult Flea Emergence Control” value (parent fleas fed 1.56 ng/mL in blood, exposure day 8) was 10.2%. The “Adult Flea Emergence Control” value (parent fleas fed 1.56 ng/mL in blood, exposure day 9) was 0%, the “Adult Flea Emergence Control” value (parent fleas fed 1.56 ng/mL in blood, exposure day 10) was 0% and the “Adult Flea Emergence Control” value (parent fleas fed 3.13 ng/mL in blood, arithmetic mean of exposure days) was 5.9%. For the same molecule, the “Adult Flea Emergence Control” value (parent fleas fed 3.13 ng/mL in blood, exposure day 3) was 4.4%, the “Adult Flea Emergence Control” value (parent fleas fed 3.13 ng/mL in blood, exposure day 4) was 11.9% and the “Adult Flea Emergence Control” value (parent fleas fed 3.13 ng/mL in blood, exposure day 5) was 3.2%. For the same molecule, the “Adult Flea Emergence Control” value (parent fleas fed 3.13 ng/mL in blood, exposure day 8) was 8.6%, the “Adult Flea Emergence Control” value (parent fleas fed 3.13 ng/mL in blood, exposure day 9) was 7.5% and the “Adult Flea Emergence Control” value (parent fleas fed 3.13 ng/mL in blood, exposure day 10) was 0%. For the same molecule, the “Adult Flea Emergence Control” value (parent fleas fed 6.25 ng/mL in blood, arithmetic mean of exposure days) was 11.5%, the “Adult Flea Emergence Control” value (parent fleas fed 6.25 ng/mL in blood, exposure day 3) was 29.2% and the “Adult Flea Emergence Control” value (parent fleas fed 6.25 ng/mL in blood, exposure day 4) was 0%. For the same molecule, the “Adult Flea Emergence Control” value (parent fleas fed 6.25 ng/mL in blood, exposure day 5) was 0%, the “Adult Flea Emergence Control” value (parent fleas fed 6.25 ng/mL in blood, exposure day 8) was 9.2% and the “Adult Flea Emergence Control” value (parent fleas fed 6.25 ng/mL in blood, exposure day 9) was 30.8%. For the same molecule, the “Adult Flea Emergence Control” value (parent fleas fed 6.25 ng/mL in blood, exposure day 10) was 0%, the “Adult Flea Emergence Control” value (parent fleas fed 12.5 ng/mL in blood, arithmetic mean of exposure days) was 100% and the “Adult Flea Emergence Control” value (parent fleas fed 12.5 ng/mL in blood, exposure day 8) was 100%.

Source: patent US9655884B2, “Antiparasitic use of isoxazoline compounds” (Intervet Inc., priority 2013, dated 2017)
